Measurements reported in PMC8761492 (Life Science Alliance, 2022).
Values joined by “and” are separate entries in the source; they are usually repeats but may differ in a detail not shown here. Identical values can stand only once. Like-named read-outs stand apart in the source and are kept apart here. Starred links: 1 amine or outer side, 2 acyl side, 3 side chain; linkers in the order of their positions; H or OH if unused. Positions of bridges follow the written chain, without caps; N, C: chain ends. Non-standard residues stand in square brackets, D forms with d. Residues, ends and D or L forms follow the SMILES beside them. *: point of attachment. X1 = CC[C@H](C)[C@@H](N[*:1])[C@@H](O)CC(=O)O[C@H](C(=O)[C@H](C)C(=O)[*:2])C(C)C; NMeY = CN[C@@H](Cc1ccc(O)cc1)C(=O)O; dNMeL = CN[C@H](CC(C)C)C(=O)O; Pyruvoyl = CC(=O)C(=O)*

What was measured:
[1] = Plasma protein binding by equilibrium dialysis, human plasma; assay type: in vitro ADME; conditions: male, human; for recovery at 100 ng/mL / fraction unbound at 5 h, 100 ng/mL: nominal 100 ng/mL; for recovery at 500 ng/mL / fraction unbound at 5 h, 500 ng/mL: nominal 500 ng/mL
Description: (§1) The binding of plitidepsin to plasma proteins was determined in vitro at three concentrations (100, 250 and 500 ng/ml) in male rat, dog and human plasma ([53]).
(§2) Rat (CD), beagle dog, and human blood was collected at Aptuit Srl from at least three male donors, and plasma prepared by centrifuging blood at 2,000g, 4°C for 10 min. Human plasma was obtained from healthy and fasted male volunteers. Na-heparin was used as the anti-coagulant for all species. All plasma was stored at approximately −20°C and thawed only once, on the day of the experiment.
(§3) Plasma protein binding was assessed using Rapid Equilibrium Dialysis plates pre-loaded with equilibrium dialysis membrane inserts (MWCO ∼8 kD).
(§4) Separation of free compound from protein-bound material was achieved by dialysis of the sample through the membrane under appropriate shaking at 37°C. The suitability of equilibrium dialysis as a method for protein binding determination of plitidepsin was assessed.
(§5) Before experimentation, the time required to reach equilibrium was determined in male rat and human plasma at one concentration (250 ng/ml) and six selected time points (2, 3, 4, 5, 6, and 7 h) at 37°C.
(§6) Plitidepsin stability was assessed in plasma (all species) and PBS at two concentrations (100 and 500 ng/ml for plasma; 0.5 and 50 ng/ml for PBS) by comparing plitidepsin concentration in spiked and preincubated plasma before and after incubation at 37°C for 5 h as determined previously.

plasma proteins = assay: as above; assay type: in vitro ADME; conditions: for % Bound / % Recovery / % Unbound: single replicates
Description: as §1, §2, §3, §4, §5, §6

COVID-19 = assay: APLICOV-PC: mortality, ventilation, ICU admission and oxygen therapy; assay type: in vivo, human
Description: Secondary outcomes included change from baseline of viral load, as evaluated by quantitative PCR via central laboratory on nasopharyngeal exudate or sampled from the lower respiratory tract within 48 h before first administration of plitidepsin and on days 4, 7, 15, and 31, and the percentage of patients requiring oxygen therapy, noninvasive mechanical ventilation, invasive mechanical ventilation and/or intensive care unit admission, and the percentage of patients with a fatal outcome on days 7, 15, and 31.
Analysis for preliminary evidence of efficacy was performed on all patients who had efficacy assessments at baseline and at least one subsequent assessment during treatment.
In regards with subgroup analyses, safety and efficacy outcomes also were assessed by age-group (<65 versus ≥65 yr) and efficacy outcomes were assessed by disease severity at baseline. Safety outcomes were also assessed before and after the implementation of the protocol amendment.

[2] = plasma, single replicates, read-out: % Bound (converted)
[3] = plasma, single replicates, read-out: % Unbound
[4] = Day 1 to Day 7, 1.5 mg (N = 14)
[5] = Day 1 to Day 7, 2.0 mg (N = 15)
[6] = Day 1 to Day 7, 2.5 mg (N = 15)
[7] = Day 1 to Day 31, 1.5 mg (N = 14)
[8] = Day 1 to Day 31, 2.0 mg (N = 15)
[9] = Day 1 to Day 31, 2.5 mg (N = 15)
[10] = Day 1 to Day 31, Total (N = 44)
[11] = Day 8 to Day 15, 1.5 mg (N = 14)
[12] = Day 8 to Day 15, 2.0 mg (N = 15)
[13] = Day 8 to Day 15, 2.5 mg (N = 15)
[14] = Day 8 to Day 15, Total (N = 44)

CC[C@H](C)[C@H]1NC(=O)[C@@H](NC(=O)[C@@H](CC(C)C)N(C)C(=O)[C@@H]2CCCN2C(=O)C(C)=O)[C@@H](C)OC(=O)[C@H](Cc2ccc(OC)cc2)N(C)C(=O)[C@@H]2CCCN2C(=O)[C@H](CC(C)C)NC(=O)[C@@H](C)C(=O)[C@H](C(C)C)OC(=O)C[C@@H]1O [Plitidepsin] (Pyruvoyl-P[dNMeL]T[X1]LP[NMeY](Me); ester 3-C)
fraction unbound ([1]; independent of drug concentration): 0.02 | recovery at 100 ng/mL ([1]; plasma, Mean ± SD): 84.3 ± 6.4% | fraction unbound at 5 h, 100 ng/mL ([1]; plasma, Mean ± SD, read-out: % Unbound): 0.017 ± 0.002 | recovery at 100 ng/mL ([1]; plasma, single replicates): 90.4% | fraction unbound at 5 h, 100 ng/mL [1, 2]: 0.014 | fraction unbound at 5 h, 100 ng/mL [1, 3]: 0.014 | recovery at 250 ng/mL ([1]; plasma, nominal 250 ng/mL, Mean ± SD): 77 ± 17.6% | fraction unbound at 5 h, 250 ng/mL ([1]; plasma, nominal 250 ng/mL, Mean ± SD, read-out: % Bound (converted)): 0.022 | fraction unbound at 5 h, 250 ng/mL ([1]; plasma, nominal 250 ng/mL, Mean ± SD, read-out: % Unbound): 0.022 ± 0.008 | fraction unbound at 5 h, 250 ng/mL ([1]; plasma, nominal 250 ng/mL, single replicates, read-out: % Bound (converted)): 0.03 | fraction unbound at 5 h, 250 ng/mL ([1]; plasma, nominal 250 ng/mL, single replicates, read-out: % Unbound): 0.03 | recovery at 500 ng/mL ([1]; plasma, mean, n=2): 80.4% | fraction unbound at 5 h, 500 ng/mL ([1]; plasma, mean, n=2, read-out: % Bound (converted)): 0.019 | fraction unbound at 5 h, 500 ng/mL ([1]; plasma, mean, n=2, read-out: % Unbound): 0.019 | recovery at 500 ng/mL ([1]; plasma, single replicates): 82% | fraction unbound at 5 h, 500 ng/mL [1, 2]: 0.019 | fraction unbound at 5 h, 500 ng/mL [1, 3]: 0.019 | fraction unbound at 100 ng/mL (plasma proteins; male, human, plasma, nominal 100 ng/mL, Mean ± SD, read-out: % Bound (converted)): 0.017 | % Bound (plasma proteins; nominal 100 ng/mL): 98.3% and 98.2% | % Recovery (plasma proteins; nominal 100 ng/mL): 84.7% and 77.7% | % Unbound (plasma proteins; nominal 100 ng/mL): 1.7% and 1.8% | % Bound (plasma proteins; nominal 250 ng/mL): 98.5% and 98% | % Recovery (plasma proteins; nominal 250 ng/mL): 56.7% and 87.3% and 87% | % Unbound (plasma proteins; nominal 250 ng/mL): 1.5% and 2% | % Bound (plasma proteins; nominal 500 ng/mL): 98% | % Recovery (plasma proteins; nominal 500 ng/mL): 78.8% | % Unbound (plasma proteins; nominal 500 ng/mL): 2% | Mortality from Day 1 to Day 31 (COVID-19; 1.5 mg (N = 14)): 1 (7.1) | Mortality from Day 1 to Day 31 (COVID-19; 2.5 mg (N = 15)): 1 (6.7) | Patients requiring invasive mechanical ventilation and/or intensive care unit admission (COVID-19; [4]): 2 (14.3) | Patients requiring noninvasive mechanical ventilation (COVID-19; [4]): 4 (28.6) | Patients requiring invasive mechanical ventilation and/or intensive care unit admission (COVID-19; [5]): 1 (6.7) | Patients requiring noninvasive mechanical ventilation (COVID-19; [5]): 0 | Patients requiring invasive mechanical ventilation and/or intensive care unit admission (COVID-19; [6]): 2 (13.3) | Patients requiring noninvasive mechanical ventilation (COVID-19; [6]): 1 (6.7) | Patients requiring invasive mechanical ventilation and/or intensive care unit admission (COVID-19; Day 1 to Day 7, Total (N = 44)): 5 (11.4) | Patients requiring noninvasive mechanical ventilation (COVID-19; Day 1 to Day 7, Total (N = 44)): 5 (11.4) | Patients requiring invasive mechanical ventilation and/or intensive care unit admission (COVID-19; [7]): 2 (14.3) | Patients requiring noninvasive mechanical ventilation (COVID-19; [7]): 5 (35.7) | Patients requiring oxygen therapy at (COVID-19; [7]): 12 (85.7) | Patients requiring invasive mechanical ventilation and/or intensive care unit admission (COVID-19; [8]): 1 (6.7) | Patients requiring noninvasive mechanical ventilation (COVID-19; [8]): 1 (6.7) | Patients requiring oxygen therapy at (COVID-19; [8]): 12 (80.0) | Patients requiring invasive mechanical ventilation and/or intensive care unit admission (COVID-19; [9]): 3 (20.0) | Patients requiring noninvasive mechanical ventilation (COVID-19; [9]): 2 (13.3) | Patients requiring oxygen therapy at (COVID-19; [9]): 11 (73.3) | Patients requiring invasive mechanical ventilation and/or intensive care unit admission (COVID-19; [10]): 6 (13.6) | Patients requiring noninvasive mechanical ventilation (COVID-19; [10]): 8 (18.2) | Patients requiring oxygen therapy at (COVID-19; [10]): 35 (79.5) | Patients requiring oxygen therapy at (COVID-19; Day 7, 1.5 mg (N=14)): 12 (85.7) | Patients requiring oxygen therapy at (COVID-19; Day 7, 2.0 mg (N = 15)): 12 (80.0) | Patients requiring oxygen therapy at (COVID-19; Day 7, 2.5 mg (N=15)): 11 (73.3) | Patients requiring oxygen therapy at (COVID-19; Day 7, Total (N=44)): 35 (79.5) | Patients requiring invasive mechanical ventilation and/or intensive care unit admission (COVID-19; [11]): 1 (7.1) | Patients requiring noninvasive mechanical ventilation (COVID-19; [11]): 3 (21.4) | Patients requiring invasive mechanical ventilation and/or intensive care unit admission (COVID-19; [12]): 1 (6.7) | Patients requiring noninvasive mechanical ventilation (COVID-19; [12]): 0 | Patients requiring invasive mechanical ventilation and/or intensive care unit admission (COVID-19; [13]): 1 (6.7) | Patients requiring noninvasive mechanical ventilation (COVID-19; [13]): 2 (13.3) | Patients requiring invasive mechanical ventilation and/or intensive care unit admission (COVID-19; [14]): 3 (6.8) | Patients requiring noninvasive mechanical ventilation (COVID-19; [14]): 5 (11.4)
